Residues, ends and D or L forms follow the SMILES beside them. *: point of attachment. Cbz = O=C(OCc1ccccc1)*

As a reminder, the melting point is the temperature, or range, at which the solid turns liquid.

As for `CCOC(=O)c1c[nH]c2ccc(Cc3ccccc3)cc12`, the melting point was in the range of 119 to 121 °C.
The molecule `CCCC1(CCC)c2cc(-c3ccc(Br)s3)ccc2-c2ccc(-c3ccc(Br)s3)cc21` registered a melting point of 160 to 165 °C.
`CNC(=O)N(OC(=O)Oc1ccccc1)c1ccc(Cl)c(Cl)c1` showed a melting point of 93 °C.
The result for `CC(=O)N1CCc2c(c(=O)c3cccnc3n2-c2ccccc2)C1` reads 210 to 212 °C; that for `CON(C)C(=O)Nc1nnc(SCc2cccnc2)s1`, 142 to 144 °C; that for `O=C(O)CCc1cccc(NC(=O)NCC(=O)N2[C@@H](c3ccccc3)CC[C@H]2c2ccccc2)c1`, 170 °C.
In the case of `C=CCN(C(=O)OC(C)(C)C)c1cc(OC)c(-c2ccc(C[C@H](NC(=O)c3c(Cl)cccc3Cl)C(=O)O)cc2)c(OC)c1` it was 138 to 139 °C.
The molecule `N#CSCOc1c(Cl)cc(Cl)c(Cl)c1Cl` returned a melting point of 51 to 53 °C.
Consider `Cc1snc(O)c1C(N)=O`, for which the melting point is 248 to 250 °C.
The molecule `CCCCCCCNC(=O)Nc1ccc(N2CCOCC2)cc1C(=O)NCC1CCN(C(c2ccccc2)c2ccccc2)CC1` had a melting point of 153 to 155 °C.
The result for `COC(=O)c1ccc(C(O)(c2ccc3[nH]c(=O)cc(-c4cccc(Cl)c4)c3c2)c2cncn2C)cc1` (stereo not given) reads 255 °C; that for `COC(C)c1nc2c(N)nc3ccccc3c2n1CC(C)C` (stereo not given), 185 to 189 °C; that for `O=C(O)C1=Cc2cc(Br)cc(Cl)c2OC1C(F)(F)F` (stereo not given), 221 to 222 °C.
In the case of `Cc1cc(C)c(S(=O)(=O)OC[C@@H]2C[C@@H]2COS(=O)(=O)c2c(C)cc(C)cc2C)c(C)c1` it was 240 °C; in that of `O=C(Nc1ccc2ccc(Cl)cc2n1)c1ccccc1`, 133 °C.
The result for `Cc1ccc(S(=O)C(C(=O)OC(C)(C)C)C(O)c2ccc(Oc3ccccc3)cc2)cc1` (stereo not given) reads 126 to 128 °C.
The molecule `COC(=O)C(C)Oc1ccc(NC(=O)CO)cc1` (stereo not given) registered a melting point of 111 to 113 °C.
The result for `CCC(=O)c1c(-c2cc(C)c(O)c(C)c2)c(C)n2c1-c1cc(OC)c(OC)cc1CC2` reads 188 to 190 °C; that for `CNC(=CC#N)c1ccc2ccccc2c1`, 138 °C; that for `CN1CCN(C(=O)CC2(C)OCCc3c2[nH]c2ccccc32)CC1` (stereo not given), 80 to 84 °C.
Molecule `C#CCC(Cc1cccnc1)(C(=O)O)S(=O)(=O)c1ccc(OC)cc1` (stereo not given) returned a melting point of 119 to 121 °C.
`Cc1sc2nc3ccc(C(=O)O)cn3c(=O)c2c1C`: the melting point is 364 to 368 °C.
With `CC1(C)OC(=O)C(Oc2cccc(F)c2)=C1c1ccc(S(C)(=O)=O)cc1`, the melting point fell in the range of 136 to 138 °C.
The result for `COc1ccc(Cn2c(=O)cc(C)c3cnc(N4CCC[C@H]4CO)nc32)cc1Cl` reads 150 to 153 °C; that for `O=S(=O)(Nc1cc(F)c(Cl)cc1I)c1ccccc1`, 122 to 124 °C; that for `N#CC(C(=O)c1cc(F)c(Cl)cc1Cl)=C(N)C1CC1`, 95 °C.
As for `CCCc1c(OCCCCCOc2ccc3c(c2CCC)OC(C(=O)O)CC3)ccc(C(C)=O)c1O` (stereo not given), the melting point was in the range of 66 to 68 °C.
`CC(=O)OC1Cc2ccccc2N(C(N)=O)c2ccccc21` (stereo not given) yielded a melting point of 185 °C.
For the molecule `O=C(O)CCCCCNC(=O)OCc1ccccc1`, the melting point lay within 54 to 55.5 °C.
In the case of `COc1cc(C(=O)CS(C)=O)c(N)c(OC)c1OC` (stereo not given) it was 102 to 104 °C; in that of `COc1ccc2c(c1)c(C)cc(=O)n2Cc1ccccc1Cl`, 177 to 179 °C.
In the case of `CCC(=O)N1CCC(NC(=O)Nc2cccc(Cl)c2)CC1` it was 165 to 166 °C; in that of `NC(=O)Cc1ccc(OCC(O)CNCCCCn2cnc3ccccc32)cc1` (stereo not given), 119 to 123 °C; in that of `Cc1ccc(Cc2cnc(NCCCN)[nH]c2=O)cn1`, 162 to 164 °C.
The result for `C[C@@H]1Cc2cc(Cl)ccc2O[C@H]1c1ccc(Cl)cc1` (relative stereo) reads 135 to 137 °C.
In the case of `CCCCCCCCCCCCOC(=O)NS(=O)(=O)Cl`, the melting point was in the range of 62 to 63 °C.
In the case of `CCCCOCCOc1ccc(-c2ccc(-n3cccn3)c(C=C(C)C(=O)O)c2)cc1` it was 132 to 134 °C.
In turn, `FC(F)(F)c1ccc2nc(N3CCN(c4ncccc4C(F)(F)F)CC3)[nH]c2c1` returned a melting point of 221 to 224 °C.
The result for `CC(=NNc1ccc(C2=NNC(=O)CC2)cc1)c1cnccn1` reads 197 to 202 °C.
`CCN(CC)CCOC(=O)C1=C(C)NC(C)=C(c2nnco2)C1c1cccc(Cl)c1Cl` (stereo not given) returned a melting point of 142 to 144 °C.
The result for `COc1ccc2c(c1)c(CCO)c(C)n2-c1ccnc2cc(Cl)ccc12` reads 143 to 145 °C; that for `COc1cc2c(c(OC)c1OC)CN(CCc1ccc([N+](=O)[O-])cc1)CC2`, 110 °C.
In the case of `CC(C)C(=O)NCCNC(=O)OC(C)(C)C` it was 116 to 117 °C; in that of `Fc1nc(NCc2cccnc2)c2nc[nH]c2n1`, 218 to 220 °C.
In the case of `COc1ccc2c(Cc3c(Cl)cncc3Cl)n[nH]c(=O)c2c1` it was 259 to 262 °C; in that of `CCc1ncnc(O)c1[N+](=O)[O-]`, 181 to 183 °C; in that of `O=[N+]([O-])c1ccc2nnn(OS(=O)(=O)c3ccccc3)c2c1`, 122 to 124 °C.
`O=C(Cc1c(-c2ccccc2)nn(-c2ccccc2)c1-c1ccccc1)Oc1ccccc1C(=O)O` gave a melting point of 190 to 191 °C.
The result for `CC(C)CCCC(C)CCOc1cc(CO)c(-c2ccccc2)cc1CO` (stereo not given) reads 112 to 115 °C; that for `CCCCCCNC(=O)Oc1ccc2c(c1)CCCN2`, 100 °C.
The result for `CC(C)(C)NCC(O)COc1cc(N)ccc1-c1ccc(=O)[nH]n1` (stereo not given) reads 198 to 202 °C; that for `O=C1CCC(c2ccc3[nH]c(-c4ccsc4)cc3c2)=NN1`, 325 to 333 °C.
The result for `CC(Oc1ccc2nc(N)sc2c1)c1cc(F)cc(F)c1` (stereo not given) reads 132 °C.
The molecule `CCOC(=O)c1cc2ccc(OC)cc2n1CCNC(C)=O` had a melting point of 159 to 160 °C.
Take `NCCc1ccc(C(N)=O)cc1`: the melting point lay in the range of 132 to 133 °C.
`CCCCc1cc(OCCc2ccc(C(=O)O)cc2)c2ccccc2n1` yielded a melting point of 205 °C.
For the molecule `CCn1c(COc2ccc(CC3SC(=O)NC3=O)cc2)nc2cccnc21` (stereo not given), the melting point lay within 210 to 212 °C.
In the case of `O=C(NCc1ccn(-c2cc3[nH]c(=O)c(=O)[nH]c3cc2[N+](=O)[O-])c1)NC1CCN(Cc2ccccc2)CC1`, the melting point was in the range of 234 to 237 °C.
In the case of `CC(C)(C)C(=O)Oc1ccc(-c2nnn(C(C(=O)NCC(=O)O)c3ccccc3)n2)cc1` (stereo not given) it was 86 to 93 °C; in that of `Nc1c(Cl)cccc1C(=O)c1ccccc1F`, 86 to 87.5 °C.
In the case of `Cc1ccc(S(=O)(=O)OCCc2cc3ccccc3o2)cc1` it was 195 to 197 °C.
`CC1=C(C(=O)Nc2ccccc2)SC2=NCCN21`: the melting point lay within 204 to 205 °C.
In the case of `O=c1[nH]sc2nc(-c3ccccc3)nc(CCc3ccccc3)c12` it was 144 to 147 °C.
The result for `Cc1cc(COP(N)(=O)N(CCCl)CCCl)ccc1[N+](=O)[O-]` (stereo not given) reads 64 to 66 °C.
For the molecule `CCC(C(=O)O)N(C(=O)c1cn(-c2ccc(OC)cc2)nc1C)c1ccc(OCC(C)(C)C)c(C#N)c1` (stereo not given), the melting point is 113 to 114 °C.
The result for `Cc1cccc2c(=O)[nH]c(C3CCN(C)CC3)cc12` reads 196 to 198 °C; that for `CCC1NC(=O)N(c2ccccc2)C(=O)N1OC(C)=O` (stereo not given), 128 to 130 °C; that for `CC1C(=O)NC(=O)N(Cc2ccccc2)C1=O` (stereo not given), 128 to 129 °C.
The result for `Cc1cc(Oc2ccc(C(F)(F)F)cc2Cl)cc(C)c1NC(=O)C1C(=O)N(C)C(=S)N(C)C1=O` reads 171 to 173 °C.
The result for `CNc1ccnc2c1c(=O)n(C)c(=O)n2C` reads 179 to 180 °C.
In turn, `CCCCCCc1cccc(NC2=NCCS2)c1` showed a melting point of 79 to 80 °C.
The result for `Nc1ccc(OCCCCOc2ccc(N)cc2[N+](=O)[O-])c([N+](=O)[O-])c1` reads 194 to 196 °C; that for `CCCc1c(OCCCOc2ccc(C(=O)O)cc2Cl)ccc(C(C)=O)c1OC(C)=O`, 146 to 148 °C.
In the case of `O=c1ccc(N2CCC(CCCO)CC2)n[nH]1` it was 174 °C.
In the case of `O=C(O)CC1c2ccccc2CCc2ccccc21` it was 163 to 165 °C; in that of `OCCc1coc2c(OC3CCCCO3)cccc12` (stereo not given), 74 to 76 °C.
In the case of `CCCCc1nc(Cl)c(CNC(=O)OCC)n1Cc1ccc(-c2ccccc2C(=O)O)cc1`, the melting point is 144 to 147 °C.
In the case of `CC1=CCC(C(=O)O)CC1` (stereo not given) it was 95 °C; in that of `Cn1c(=O)cnn(-c2cc(OCC#CBr)c(Cl)cc2F)c1=O`, 127 to 129 °C.
As for `CC(C)(C)OC(=O)C(CO)NC(=O)c1coc(-c2cocn2)n1` (stereo not given), the melting point lay in the range of 85 to 87 °C.
`COC(=O)C(Cc1ccccc1)NC(=O)C(Cc1ccccc1)NC(=O)CNC(=O)OCc1ccccc1` (stereo not drawn) (Cbz-Gly-Phe-Phe-OMe; configuration not given here) returned a melting point of 122 to 124 °C.
The result for `N#CC1=CCC(c2ccccc2)c2ccccc21` (stereo not given) reads 66 to 67 °C; that for `CCOC(=O)n1nc2cc(Cl)ccc2c1N`, 163 to 165 °C; that for `NS(=O)(=O)c1ccc(-c2c(-c3ccccc3)noc2CC(=O)C(F)(F)F)cc1`, 132 to 139 °C.
In the case of `Cn1c(COc2ccc(C=O)cc2)nc2ccc(Sc3cc(C(C)(C)C)c(O)c(C(C)(C)C)c3)cc21` it was 219 to 221 °C; in that of `CC(C)Oc1cc(-n2c(=O)cc(C(F)(F)C(F)(F)F)[nH]c2=O)c(F)cc1Cl`, 141 to 143 °C; in that of `O=C1Nc2cc(C(F)(F)F)ccc2C1(O)c1cc(Cl)ccc1O` (stereo not given), 198 to 200 °C.
Regarding `CC(NO)c1ccc2c(c1)Sc1ccccc1O2` (stereo not given), the melting point was 64 to 67 °C.
In the case of `CCCc1c(OCCCOc2ccc(C(C)=O)c(OCC(=O)O)c2CCC)ccc(C(C)=O)c1O` it was 151 to 155 °C.
As for `NC(=O)c1cc(=O)c2c(o1)c1ccccc1n2-c1ccccc1`, the melting point lay within 263 to 265 °C.
